Data reported in PubChem BioAssay AID248 (DTP/NCI, 2004).
Inconclusive results and toxic doses are left out.

Test system: L1210 leukemia ip in BDF1 mice, survival T/C
Assay: NCI In Vivo Anticancer Drug Screen. Data for tumor model L1210 Leukemia (intraperitoneal) in B6D2F1 (BDF1) mice
Conditions: higher = longer survival
Procedure, shortened: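 Antitumor effect is assessed in tumor-bearing animals. Survival in the compound arm is compared with a vehicle-dosed control arm and expressed as their quotient.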

C[C@H](CN1CC(=O)NC(=O)C1)N1CC(=O)NC(=O)C1
T/C (endpoint: mean survival time, dose: 25.0 mg/kg/injection, schedule: Q04DX003 (ip), vehicle: saline): 124 % of control
T/C (endpoint: mean survival time, dose: 25.0 mg/kg/injection, schedule: Q04DX003 (ip), vehicle: water): 104 % of control
T/C (endpoint: mean survival time, dose: 50.0 mg/kg/injection, schedule: Q04DX003 (ip), vehicle: saline): 117 % of control
T/C (endpoint: mean survival time, dose: 50.0 mg/kg/injection, schedule: Q04DX003 (ip), vehicle: water): 110 % of control
T/C (endpoint: mean survival time, dose: 100.0 mg/kg/injection, schedule: Q04DX003 (ip), vehicle: saline): 117 % of control
T/C (endpoint: mean survival time, dose: 200.0 mg/kg/injection, schedule: Q04DX003 (ip), vehicle: saline): 158 % of control
T/C (endpoint: mean survival time, dose: 200.0 mg/kg/injection, schedule: Q04DX003 (ip), vehicle: water): 152 % of control
T/C (endpoint: mean survival time, dose: 400.0 mg/kg/injection, schedule: Q04DX003 (ip), vehicle: saline): 182 % of control
T/C (endpoint: mean survival time, dose: 400.0 mg/kg/injection, schedule: Q04DX003 (ip), vehicle: water): 184 % of control
T/C (endpoint: mean survival time, dose: 800.0 mg/kg/injection, schedule: Q04DX003 (ip), vehicle: saline): 187 % of control
T/C (endpoint: mean survival time, dose: 800.0 mg/kg/injection, schedule: Q04DX003 (ip), vehicle: water): 107 % of control
T/C (endpoint: median survival time, dose: 8.0 mg/kg/injection, schedule: Q03HX008 (ip), vehicle: saline): 153 % of control
T/C (endpoint: median survival time, dose: 8.0 mg/kg/injection, schedule: Q03HX016 (ip), vehicle: saline): 204 % of control
T/C (endpoint: median survival time, dose: 16.0 mg/kg/injection, schedule: Q01DX009 (sc), vehicle: saline): 152 % of control
T/C (endpoint: median survival time, dose: 16.0 mg/kg/injection, schedule: Q03HX008 (ip), vehicle: saline): 163 % of control
T/C (endpoint: median survival time, dose: 16.0 mg/kg/injection, schedule: Q03HX016 (ip), vehicle: saline): 203 % of control
T/C (endpoint: median survival time, dose: 16.0 mg/kg/injection, schedule: Q03HX024 (ip), vehicle: saline): 98 % of control
T/C (endpoint: median survival time, dose: 32.0 mg/kg/injection, schedule: Q01DX009 (sc), vehicle: saline): 156 % of control
T/C (endpoint: median survival time, dose: 32.0 mg/kg/injection, schedule: Q03HX008 (ip), vehicle: saline): 160 % of control
T/C (endpoint: median survival time, dose: 32.0 mg/kg/injection, schedule: Q03HX024 (ip), vehicle: saline): 94 % of control
T/C (endpoint: median survival time, dose: 64.0 mg/kg/injection, schedule: Q01DX001 (ip), vehicle: saline): 102 % of control
T/C (endpoint: median survival time, dose: 64.0 mg/kg/injection, schedule: Q01DX009 (sc), vehicle: saline): 110 % of control
T/C (endpoint: median survival time, dose: 64.0 mg/kg/injection, schedule: Q04DX003 (ip), vehicle: saline): 108 % of control
T/C (endpoint: median survival time, dose: 64.0 mg/kg/injection, schedule: Q04DX003 (sc), vehicle: saline): 121 % of control
T/C (endpoint: median survival time, dose: 64.0 mg/kg/injection, schedule: Q08DX002 (ip), vehicle: saline): 109 % of control
T/C (endpoint: median survival time, dose: 128.0 mg/kg/injection, schedule: Q01DX001 (ip), vehicle: saline): 107 % of control
T/C (endpoint: median survival time, dose: 128.0 mg/kg/injection, schedule: Q01DX009 (sc), vehicle: saline): 93 % of control
T/C (endpoint: median survival time, dose: 128.0 mg/kg/injection, schedule: Q03HX008 (ip), vehicle: saline): 152 % of control
T/C (endpoint: median survival time, dose: 128.0 mg/kg/injection, schedule: Q04DX003 (ip), vehicle: saline): 124 % of control
T/C (endpoint: median survival time, dose: 128.0 mg/kg/injection, schedule: Q08DX002 (ip), vehicle: saline): 107 % of control
T/C (endpoint: median survival time, dose: 256.0 mg/kg/injection, schedule: Q01DX001 (ip), vehicle: saline): 109 % of control
T/C (endpoint: median survival time, dose: 256.0 mg/kg/injection, schedule: Q04DX003 (sc), vehicle: saline): 172 % of control
T/C (endpoint: median survival time, dose: 512.0 mg/kg/injection, schedule: Q01DX001 (ip), vehicle: saline): 120 % of control
T/C (endpoint: median survival time, dose: 512.0 mg/kg/injection, schedule: Q04DX003 (ip), vehicle: saline): 157 % of control
T/C (endpoint: median survival time, dose: 512.0 mg/kg/injection, schedule: Q04DX003 (sc), vehicle: saline): 202 % of control
T/C (endpoint: median survival time, dose: 512.0 mg/kg/injection, schedule: Q08DX002 (ip), vehicle: saline): 121 % of control
T/C (endpoint: median survival time, dose: 1024.0 mg/kg/injection, schedule: Q04DX003 (ip), vehicle: saline): 193 % of control
T/C (endpoint: median survival time, dose: 1024.0 mg/kg/injection, schedule: Q04DX003 (sc), vehicle: saline): 180 % of control
T/C (endpoint: median survival time, dose: 1024.0 mg/kg/injection, schedule: Q08DX002 (ip), vehicle: saline): 179 % of control

O=C(O)c1cccc2c1-c1ccccc1/C2=N\O
T/C (endpoint: mean survival time, dose: 100.0 mg/kg/injection, schedule: Q01DX001 (ip), vehicle: saline): 100 % of control
T/C (endpoint: mean survival time, dose: 200.0 mg/kg/injection, schedule: Q01DX001 (ip), vehicle: saline): 110 % of control
T/C (endpoint: mean survival time, dose: 400.0 mg/kg/injection, schedule: Q01DX001 (ip), vehicle: saline): 104 % of control

CCC(=O)OC(CC=C(C)C)(c1ccccc1)C(C)CN(C)C (stereo not drawn)
T/C (endpoint: mean survival time, dose: 100.0 mg/kg/injection, schedule: Q01DX009 (ip), vehicle: saline): 100 % of control
